# Numbers after ± are expanded uncertainties.
# Assay: xn = mol fraction of the nth substance listed
# Conditions: 101 kPa, Liquid
smiles,measurement,setting,value
OCCOCCO [diethylene glycol] + O,mass density,"283.15 K, x1 = 0.0255",1019.73 ± 2.9 kg/m3
same,mass density,"283.15 K, x1 = 0.0565",1040.15 ± 2.3 kg/m3
same,mass density,"283.15 K, x1 = 0.1027",1063.34 ± 1.5 kg/m3
same,mass density,"283.15 K, x1 = 0.1966",1091.18 ± 0.96 kg/m3
same,mass density,"283.15 K, x1 = 0.301",1106.34 ± 0.64 kg/m3
same,mass density,"283.15 K, x1 = 0.3989",1113.62 ± 0.55 kg/m3
same,mass density,"283.15 K, x1 = 0.5006",1117.88 ± 0.55 kg/m3
same,mass density,"283.15 K, x1 = 0.6011",1120.39 ± 0.57 kg/m3
same,mass density,"283.15 K, x1 = 0.7003",1121.98 ± 0.6 kg/m3
same,mass density,"283.15 K, x1 = 0.8051",1123.07 ± 0.64 kg/m3
same,mass density,"283.15 K, x1 = 0.892",1123.64 ± 0.68 kg/m3
same,mass density,"283.15 K, x1 = 1",1124.24 ± 0.73 kg/m3
same,mass density,"288.15 K, x1 = 0.0255",1018.61 ± 2.8 kg/m3
same,mass density,"288.15 K, x1 = 0.0565",1038.42 ± 2.2 kg/m3
same,mass density,"288.15 K, x1 = 0.1027",1060.91 ± 1.4 kg/m3
same,mass density,"288.15 K, x1 = 0.1966",1088.01 ± 0.93 kg/m3
same,mass density,"288.15 K, x1 = 0.301",1102.88 ± 0.63 kg/m3
same,mass density,"288.15 K, x1 = 0.3989",1110.06 ± 0.54 kg/m3
same,mass density,"288.15 K, x1 = 0.5006",1114.29 ± 0.54 kg/m3
same,mass density,"288.15 K, x1 = 0.6011",1116.8 ± 0.56 kg/m3
same,mass density,"288.15 K, x1 = 0.7003",1118.39 ± 0.59 kg/m3
same,mass density,"288.15 K, x1 = 0.8051",1119.47 ± 0.63 kg/m3
same,mass density,"288.15 K, x1 = 0.892",1120.05 ± 0.67 kg/m3
same,mass density,"288.15 K, x1 = 1",1120.65 ± 0.72 kg/m3
same,mass density,"293.15 K, x1 = 0.0255",1017.27 ± 2.7 kg/m3
same,viscosity,"293.15 K, x1 = 0.0255",1.429 ± 0.088 mPa·s
same,mass density,"293.15 K, x1 = 0.0565",1036.53 ± 2.1 kg/m3
same,viscosity,"293.15 K, x1 = 0.0565",2.223 ± 0.12 mPa·s
same,mass density,"293.15 K, x1 = 0.1027",1058.39 ± 1.4 kg/m3
same,viscosity,"293.15 K, x1 = 0.1027",3.639 ± 0.16 mPa·s
same,mass density,"293.15 K, x1 = 0.1966",1084.81 ± 0.91 kg/m3
same,viscosity,"293.15 K, x1 = 0.1966",7.452 ± 0.2 mPa·s
same,mass density,"293.15 K, x1 = 0.301",1099.4 ± 0.62 kg/m3
same,viscosity,"293.15 K, x1 = 0.301",12.6 ± 0.23 mPa·s
same,mass density,"293.15 K, x1 = 0.3989",1106.48 ± 0.53 kg/m3
same,viscosity,"293.15 K, x1 = 0.3989",17.48 ± 0.25 mPa·s
same,mass density,"293.15 K, x1 = 0.5006",1110.68 ± 0.53 kg/m3
same,viscosity,"293.15 K, x1 = 0.5006",22.22 ± 0.26 mPa·s
same,mass density,"293.15 K, x1 = 0.6011",1113.19 ± 0.55 kg/m3
same,viscosity,"293.15 K, x1 = 0.6011",26 ± 0.27 mPa·s
same,mass density,"293.15 K, x1 = 0.7003",1114.79 ± 0.58 kg/m3
same,viscosity,"293.15 K, x1 = 0.7003",29.46 ± 0.29 mPa·s
same,mass density,"293.15 K, x1 = 0.8051",1115.87 ± 0.62 kg/m3
same,viscosity,"293.15 K, x1 = 0.8051",32.26 ± 0.31 mPa·s
same,mass density,"293.15 K, x1 = 0.892",1116.45 ± 0.66 kg/m3
same,viscosity,"293.15 K, x1 = 0.892",34.04 ± 0.33 mPa·s
same,mass density,"293.15 K, x1 = 1",1117.05 ± 0.71 kg/m3
same,viscosity,"293.15 K, x1 = 1",36.43 ± 0.35 mPa·s
same,mass density,"298.15 K, x1 = 0.0255",1015.72 ± 2.6 kg/m3
same,mass density,"298.15 K, x1 = 0.0565",1034.5 ± 2.1 kg/m3
same,mass density,"298.15 K, x1 = 0.1027",1055.77 ± 1.3 kg/m3
same,mass density,"298.15 K, x1 = 0.1966",1081.56 ± 0.89 kg/m3
same,mass density,"298.15 K, x1 = 0.301",1095.89 ± 0.61 kg/m3
same,mass density,"298.15 K, x1 = 0.3989",1102.89 ± 0.52 kg/m3
same,mass density,"298.15 K, x1 = 0.5006",1107.07 ± 0.52 kg/m3
same,mass density,"298.15 K, x1 = 0.6011",1109.59 ± 0.54 kg/m3
same,mass density,"298.15 K, x1 = 0.7003",1111.19 ± 0.57 kg/m3
same,mass density,"298.15 K, x1 = 0.8051",1112.27 ± 0.61 kg/m3
same,mass density,"298.15 K, x1 = 0.892",1112.86 ± 0.65 kg/m3
same,mass density,"298.15 K, x1 = 1",1113.47 ± 0.7 kg/m3
same,mass density,"303.15 K, x1 = 0.0255",1013.97 ± 2.6 kg/m3
same,viscosity,"303.15 K, x1 = 0.0255",1.115 ± 0.063 mPa·s
same,mass density,"303.15 K, x1 = 0.0565",1032.33 ± 2 kg/m3
same,viscosity,"303.15 K, x1 = 0.0565",1.674 ± 0.081 mPa·s
same,mass density,"303.15 K, x1 = 0.1027",1053.07 ± 1.3 kg/m3
same,viscosity,"303.15 K, x1 = 0.1027",2.629 ± 0.1 mPa·s
same,mass density,"303.15 K, x1 = 0.1966",1078.28 ± 0.87 kg/m3
same,viscosity,"303.15 K, x1 = 0.1966",5.148 ± 0.13 mPa·s
same,mass density,"303.15 K, x1 = 0.301",1092.36 ± 0.6 kg/m3
same,viscosity,"303.15 K, x1 = 0.301",8.358 ± 0.15 mPa·s
same,mass density,"303.15 K, x1 = 0.3989",1099.29 ± 0.51 kg/m3
same,viscosity,"303.15 K, x1 = 0.3989",11.4 ± 0.16 mPa·s
same,mass density,"303.15 K, x1 = 0.5006",1103.45 ± 0.51 kg/m3
same,viscosity,"303.15 K, x1 = 0.5006",14.15 ± 0.16 mPa·s
same,mass density,"303.15 K, x1 = 0.6011",1105.97 ± 0.53 kg/m3
same,viscosity,"303.15 K, x1 = 0.6011",16.34 ± 0.17 mPa·s
same,mass density,"303.15 K, x1 = 0.7003",1107.58 ± 0.56 kg/m3
same,viscosity,"303.15 K, x1 = 0.7003",18.48 ± 0.19 mPa·s
same,mass density,"303.15 K, x1 = 0.8051",1108.67 ± 0.6 kg/m3
same,viscosity,"303.15 K, x1 = 0.8051",20 ± 0.2 mPa·s
same,mass density,"303.15 K, x1 = 0.892",1109.27 ± 0.64 kg/m3
same,viscosity,"303.15 K, x1 = 0.892",21.19 ± 0.21 mPa·s
same,mass density,"303.15 K, x1 = 1",1109.88 ± 0.69 kg/m3
same,viscosity,"303.15 K, x1 = 1",22.09 ± 0.22 mPa·s
same,mass density,"308.15 K, x1 = 0.0255",1011.83 ± 2.5 kg/m3
same,mass density,"308.15 K, x1 = 0.0565",1030.02 ± 2 kg/m3
same,mass density,"308.15 K, x1 = 0.1027",1050.27 ± 1.3 kg/m3
same,mass density,"308.15 K, x1 = 0.1966",1074.94 ± 0.86 kg/m3
same,mass density,"308.15 K, x1 = 0.301",1088.8 ± 0.59 kg/m3
same,mass density,"308.15 K, x1 = 0.3989",1095.67 ± 0.5 kg/m3
same,mass density,"308.15 K, x1 = 0.5006",1099.82 ± 0.5 kg/m3
same,mass density,"308.15 K, x1 = 0.6011",1102.36 ± 0.52 kg/m3
same,mass density,"308.15 K, x1 = 0.7003",1103.97 ± 0.56 kg/m3
same,mass density,"308.15 K, x1 = 0.8051",1105.06 ± 0.59 kg/m3
same,mass density,"308.15 K, x1 = 0.892",1105.68 ± 0.63 kg/m3
same,mass density,"308.15 K, x1 = 1",1106.29 ± 0.68 kg/m3
same,mass density,"313.15 K, x1 = 0.0255",1009.99 ± 2.5 kg/m3
same,viscosity,"313.15 K, x1 = 0.0255",0.959 ± 0.047 mPa·s
same,mass density,"313.15 K, x1 = 0.0565",1027.57 ± 1.9 kg/m3
same,viscosity,"313.15 K, x1 = 0.0565",1.298 ± 0.056 mPa·s
same,mass density,"313.15 K, x1 = 0.1027",1047.39 ± 1.2 kg/m3
same,viscosity,"313.15 K, x1 = 0.1027",1.984 ± 0.073 mPa·s
same,mass density,"313.15 K, x1 = 0.1966",1071.56 ± 0.84 kg/m3
same,viscosity,"313.15 K, x1 = 0.1966",3.716 ± 0.088 mPa·s
same,mass density,"313.15 K, x1 = 0.301",1085.22 ± 0.58 kg/m3
same,viscosity,"313.15 K, x1 = 0.301",5.847 ± 0.1 mPa·s
same,mass density,"313.15 K, x1 = 0.3989",1092.03 ± 0.5 kg/m3
same,viscosity,"313.15 K, x1 = 0.3989",7.761 ± 0.11 mPa·s
same,mass density,"313.15 K, x1 = 0.5006",1096.18 ± 0.49 kg/m3
same,viscosity,"313.15 K, x1 = 0.5006",9.506 ± 0.11 mPa·s
same,mass density,"313.15 K, x1 = 0.6011",1098.73 ± 0.52 kg/m3
same,viscosity,"313.15 K, x1 = 0.6011",10.93 ± 0.12 mPa·s
same,mass density,"313.15 K, x1 = 0.7003",1100.35 ± 0.55 kg/m3
same,viscosity,"313.15 K, x1 = 0.7003",12.22 ± 0.13 mPa·s
same,mass density,"313.15 K, x1 = 0.8051",1101.45 ± 0.58 kg/m3
same,viscosity,"313.15 K, x1 = 0.8051",13.2 ± 0.14 mPa·s
same,mass density,"313.15 K, x1 = 0.892",1102.09 ± 0.62 kg/m3
same,viscosity,"313.15 K, x1 = 0.892",13.93 ± 0.14 mPa·s
same,mass density,"313.15 K, x1 = 1",1102.7 ± 0.67 kg/m3
same,viscosity,"313.15 K, x1 = 1",14.56 ± 0.15 mPa·s
same,mass density,"318.15 K, x1 = 0.0255",1007.73 ± 2.5 kg/m3
same,mass density,"318.15 K, x1 = 0.0565",1025.01 ± 1.9 kg/m3
same,mass density,"318.15 K, x1 = 0.1027",1044.41 ± 1.2 kg/m3
same,mass density,"318.15 K, x1 = 0.1966",1068.13 ± 0.82 kg/m3
same,mass density,"318.15 K, x1 = 0.301",1081.61 ± 0.57 kg/m3
same,mass density,"318.15 K, x1 = 0.3989",1088.37 ± 0.49 kg/m3
same,mass density,"318.15 K, x1 = 0.5006",1092.53 ± 0.49 kg/m3
same,mass density,"318.15 K, x1 = 0.6011",1095.08 ± 0.51 kg/m3
same,mass density,"318.15 K, x1 = 0.7003",1096.71 ± 0.54 kg/m3
same,mass density,"318.15 K, x1 = 0.8051",1097.83 ± 0.57 kg/m3
same,mass density,"318.15 K, x1 = 0.892",1098.49 ± 0.61 kg/m3
same,mass density,"318.15 K, x1 = 1",1099.11 ± 0.66 kg/m3

# — the NIST ThermoML archive (doi:10.1021/je700672f)
